Data reported in patent US7049336B2, “Method for diagnosing neuronal diseases and for treating primary hemostasis deficiency” (Max-Delbruck-Centrum fur Molekularc Medizin, priority 2000, dated 2006).

Tested on: TPH(−/−)-mice
Assay: Bleeding time (disturbed hemostasis) in TPH(−/−)-mice after intracardial injection
Type: in vivo, mouse
Details: for Effect on prolonged bleeding time phenotype: TPH(−/−)-mice
Excerpt: FIG. 3. Disturbed hemostasis in TPH(−/−)-mice. • A. Prolonged bleeding times of TPH(−/−)-animals. […] The 5-HT-amounts applied result in 1/10 and the ten-fold of the normal blood concentrations. • C. […] The effect is specific for the TPH(−/−)-mice, whereas control-animals are not affected.

Compound | Effect on prolonged bleeding time phenotype (intracardial 5-HT-injection, amounts result in 1/10 and the ten-fold of the normal blood concentrations) | Effect on prolonged bleeding time phenotype (intracardial von Willebrand-factor injection) | Effect on bleeding time in control-animals (control-animals, intracardial von Willebrand-factor injection)
NCCc1c[nH]c2ccc(O)cc12 [5-HT, serotonin, reference compound] | Healing of the phenotype | – | –
von Willebrand-factor: commercially available von Willebrand-factor (vWF) | – | Healing of the phenotype | not affected
